Where “and” joins values, the source holds several entries; their conditions need not be identical. Equal values may be shown once.
Tests used:
ROCK-II(h) = ROCK-II(h) (Homo sapiens, UniProt O75116); assay: Kinase selectivity panel (residual activity at 1 μM); assay type: biochemical; conditions: inhibitor at 1 μM; read-out: residual kinase activity in % of maximal activity
GSK3α(h) = GSK3α(h) (Homo sapiens, UniProt P49840); assay: as above; assay type: biochemical; conditions: inhibitor at 1 μM; read-out: residual kinase activity in % of maximal activity
PKG1β(h) = PKG1β(h) (Homo sapiens, UniProt Q13976); assay: as above; assay type: biochemical; conditions: inhibitor at 1 μM; read-out: residual kinase activity in % of maximal activity
GSK3β(h) = GSK3β(h) (Homo sapiens, UniProt P49841); assay: as above; assay type: biochemical; conditions: inhibitor at 1 μM; read-out: residual kinase activity in % of maximal activity
[1] = target: purified CaMKIIα binding to GST–GluN2B-c WT (Homo sapiens, UniProt Q9UQM7); assay: CaMKII binding to immobilized GST–GluN2B-c in vitro; conditions: for bound CaMKIIα (immunoblot, relative): Ca2+/CaM
Procedure: CaMKII–GluN2B binding assays were done as described[9],[13],[25]. Briefly, GST–GluN2B-c tail (GST–2BC) was immobilized on anti-GST antibody-coated microtiter plates (Thermo Scientific), blocked for 30 min with 5% BSA and then overlaid with […] CaMKII (subunit concentration) in PIPES-buffered saline (pH 7.2) containing 2 mM Ca^2+, 1 μM CaM, 1 mM Mg^2+, 0.1% BSA and 0.1% Tween-20 for 20 min at room temperature. […] After extensive washes in buffer containing 1 mM EGTA, GST–2BC and bound CaMKII were eluted for 10 min in SDS loading buffer at 95 °C. Bound CaMKII was measured via immunoblot.

CaMKI(h) = CaMKI(h) (Homo sapiens, UniProt Q14012); assay: Kinase selectivity panel (residual activity at 1 μM); assay type: biochemical; conditions: inhibitor at 1 μM; read-out: residual kinase activity in % of maximal activity
[2] = tested on: GFP–CaMKII in rat hippocampal neurons; assay: cLTP-induced CaMKII synaptic enrichment in dissociated hippocampal cultures (GFP–CaMKII WT); assay type: cell-based; conditions: for CaMKII synaptic enrichment: GFP-CaMKII WT, individual neurons, sheet 4e
PDK1(h) = PDK1(h) (Homo sapiens, UniProt O15530); assay: Kinase selectivity panel (residual activity at 1 μM); assay type: biochemical; conditions: inhibitor at 1 μM; read-out: residual kinase activity in % of maximal activity
Arg(h) = Arg(h) (Homo sapiens, UniProt P42684); assay: as above; assay type: biochemical; conditions: inhibitor at 1 μM; read-out: residual kinase activity in % of maximal activity
[3] = target: PI3 Kinase (p110a/p85a)(h) (Homo sapiens, UniProt P42336); assay: as above; assay type: biochemical; conditions: inhibitor at 1 μM; read-out: residual kinase activity in % of maximal activity
CaMKIIγ(h) = CaMKIIγ(h) (Homo sapiens, UniProt Q13555); assay: as above; assay type: biochemical; conditions: inhibitor at 1 μM; read-out: residual kinase activity in % of maximal activity
p70S6K(h) = p70S6K(h) (Homo sapiens, UniProt P23443); assay: as above; assay type: biochemical; conditions: inhibitor at 1 μM; read-out: residual kinase activity in % of maximal activity
AMPKα1(h) = AMPKα1(h) (Homo sapiens, UniProt Q13131); assay: as above; assay type: biochemical; conditions: inhibitor at 1 μM; read-out: residual kinase activity in % of maximal activity
PDGFRβ(h) = PDGFRβ(h) (Homo sapiens, UniProt P09619); assay: as above; assay type: biochemical; conditions: inhibitor at 1 μM; read-out: residual kinase activity in % of maximal activity
[4] = target: T1, CaMKII-F89G binding to GST-GluN2B-c (Homo sapiens, UniProt Q9UQM7, F89G); assay: CaMKII-F89G binding to immobilized GST-GluN2B-c in vitro
T1 construct: made in house; host or cells: HEK293 overexpression (CaMKII mutant); BL21 bacteria (CaM, GST-GluN2Bc)
Procedure: CaMKII–GluN2B binding assays were done as described[9],[13],[25]. Briefly, GST–GluN2B-c tail (GST–2BC) was immobilized on anti-GST antibody-coated microtiter plates (Thermo Scientific), blocked for 30 min with 5% BSA and then overlaid with […] CaMKII (subunit concentration) in PIPES-buffered saline (pH 7.2) containing 2 mM Ca^2+, 1 μM CaM, 1 mM Mg^2+, 0.1% BSA and 0.1% Tween-20 for 20 min at room temperature. The addition of 1 mM ADP, 1 mM ATP, 10 μM AS283 (or AS105) or 10 μM NM-PP1 was added accordingly (Figs. 1–6). After extensive washes in buffer containing 1 mM EGTA, GST–2BC and bound CaMKII were eluted for 10 min in SDS loading buffer at 95 °C. Bound CaMKII was measured via immunoblot.
Extended Data Fig. 4 CaMKII WT and K42M are unaffected by NM-PP1 in HEK cells. Data are presented as mean values +/− SEM. a, Representative immunoblot and quantification of in vitro kinase reactions at 30 °C in 1 mM ATP measuring CaMKIIα WT and F89G phosphorylation of T286 (n = 4 independent samples, **p < 0.01, ***p < 0.001; two-way ANOVA with Šídák’s multiple comparisons test). WT) –:ATP p = 0.0012; –:ATP+NM-PP1 p = 0.0002; ATP:ATP+NM-PP1 p = 0.7989. […] Scale bar indicates 10 μm. n = 22, 17 cells; see Fig. 4c for quantification. c, Binding of CaMKII-F89G to immobilized GST-GluN2B-c was induced by Ca^2+/CaM in the presence of either 1 mM ADP or 10 μM NM-PP1. […]

[5] = target: T2, GFP–CaMKII F89G / mCh-GluN2B-c tail in HEK293 cells (Homo sapiens, UniProt Q9UQM7, F89G); assay: Ionomycin-induced colocalization of GFP–CaMKII F89G and mCherry-2BC in HEK293 cells; assay type: cell-based; conditions: 10 µM NM-PP1
T2 construct: expressed in transfected cells; host or cells: HEK293
T2 sequence (Q13224 836-1484 S1303A): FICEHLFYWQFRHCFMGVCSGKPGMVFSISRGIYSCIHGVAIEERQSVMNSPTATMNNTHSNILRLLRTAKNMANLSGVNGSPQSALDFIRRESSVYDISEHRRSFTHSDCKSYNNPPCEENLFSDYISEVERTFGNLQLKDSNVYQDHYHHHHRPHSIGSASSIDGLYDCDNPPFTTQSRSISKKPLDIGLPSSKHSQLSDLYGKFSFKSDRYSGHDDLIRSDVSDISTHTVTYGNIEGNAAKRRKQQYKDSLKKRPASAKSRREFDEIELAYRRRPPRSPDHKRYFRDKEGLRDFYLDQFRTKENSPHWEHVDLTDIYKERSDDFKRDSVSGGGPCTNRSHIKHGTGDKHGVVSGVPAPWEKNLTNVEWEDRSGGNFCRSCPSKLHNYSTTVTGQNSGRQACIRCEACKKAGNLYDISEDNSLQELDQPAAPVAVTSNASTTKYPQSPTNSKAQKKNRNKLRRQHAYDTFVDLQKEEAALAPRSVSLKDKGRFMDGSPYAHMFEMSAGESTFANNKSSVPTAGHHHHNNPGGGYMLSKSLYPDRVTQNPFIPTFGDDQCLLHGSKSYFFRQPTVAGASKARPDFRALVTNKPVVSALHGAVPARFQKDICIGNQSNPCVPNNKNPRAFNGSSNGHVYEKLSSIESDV
T2 sequence (Q9UQM7 whole entry F89G): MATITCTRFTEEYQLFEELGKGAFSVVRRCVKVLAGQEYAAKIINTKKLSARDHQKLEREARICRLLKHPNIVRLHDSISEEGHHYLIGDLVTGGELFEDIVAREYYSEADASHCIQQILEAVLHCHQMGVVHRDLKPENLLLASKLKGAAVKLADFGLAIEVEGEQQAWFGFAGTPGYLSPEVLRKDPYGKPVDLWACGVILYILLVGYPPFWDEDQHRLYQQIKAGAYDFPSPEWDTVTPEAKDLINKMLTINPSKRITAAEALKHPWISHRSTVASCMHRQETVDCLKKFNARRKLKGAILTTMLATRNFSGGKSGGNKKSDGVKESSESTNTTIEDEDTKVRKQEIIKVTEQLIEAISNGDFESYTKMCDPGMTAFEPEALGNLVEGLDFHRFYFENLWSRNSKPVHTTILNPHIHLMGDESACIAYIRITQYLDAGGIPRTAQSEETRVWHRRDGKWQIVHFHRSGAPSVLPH

T1 sequence (Q9UQM7 whole entry F89G): as above
T1 sequence (Q13224 836-1484, further chain): as the sequence (Q13224 836-1484 S1303A) above, with A468S counted along it
ROCK-II(h), sequence (O75116 whole entry): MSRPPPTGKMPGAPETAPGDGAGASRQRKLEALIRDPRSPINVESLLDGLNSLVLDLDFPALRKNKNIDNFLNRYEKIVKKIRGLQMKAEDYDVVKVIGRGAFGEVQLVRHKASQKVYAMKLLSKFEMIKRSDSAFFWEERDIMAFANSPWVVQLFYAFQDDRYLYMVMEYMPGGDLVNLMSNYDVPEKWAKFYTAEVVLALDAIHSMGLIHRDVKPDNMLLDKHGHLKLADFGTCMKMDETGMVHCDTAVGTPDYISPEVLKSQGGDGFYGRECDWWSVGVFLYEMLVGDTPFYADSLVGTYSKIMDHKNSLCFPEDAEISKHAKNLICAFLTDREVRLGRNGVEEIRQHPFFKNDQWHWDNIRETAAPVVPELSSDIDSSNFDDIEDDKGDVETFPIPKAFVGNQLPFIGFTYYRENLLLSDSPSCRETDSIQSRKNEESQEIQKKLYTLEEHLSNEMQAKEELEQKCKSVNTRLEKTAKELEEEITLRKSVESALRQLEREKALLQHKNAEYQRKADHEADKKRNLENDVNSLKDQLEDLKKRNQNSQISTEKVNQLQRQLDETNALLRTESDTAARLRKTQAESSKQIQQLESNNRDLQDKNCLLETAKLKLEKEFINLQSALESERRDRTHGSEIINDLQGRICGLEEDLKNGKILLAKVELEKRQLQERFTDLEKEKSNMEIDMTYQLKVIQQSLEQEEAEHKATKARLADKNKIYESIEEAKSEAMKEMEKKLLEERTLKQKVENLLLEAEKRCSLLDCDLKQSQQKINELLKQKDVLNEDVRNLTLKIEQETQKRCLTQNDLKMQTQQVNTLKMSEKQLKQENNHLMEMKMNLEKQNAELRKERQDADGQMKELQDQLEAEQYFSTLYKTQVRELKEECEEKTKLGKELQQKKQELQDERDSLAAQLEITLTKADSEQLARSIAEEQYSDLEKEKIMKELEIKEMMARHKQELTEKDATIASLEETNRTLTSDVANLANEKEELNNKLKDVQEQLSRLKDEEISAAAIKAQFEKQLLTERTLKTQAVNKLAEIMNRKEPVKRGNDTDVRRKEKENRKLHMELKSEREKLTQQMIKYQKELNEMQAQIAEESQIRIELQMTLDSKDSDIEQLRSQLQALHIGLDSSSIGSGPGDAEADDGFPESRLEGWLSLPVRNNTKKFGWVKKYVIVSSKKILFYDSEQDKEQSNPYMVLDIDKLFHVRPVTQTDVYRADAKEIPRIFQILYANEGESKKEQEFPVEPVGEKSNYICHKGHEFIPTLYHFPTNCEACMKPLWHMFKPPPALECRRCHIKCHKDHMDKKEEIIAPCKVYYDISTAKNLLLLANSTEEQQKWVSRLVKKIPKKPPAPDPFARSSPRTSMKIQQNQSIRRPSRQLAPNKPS
PDK1(h), sequence (O15530 whole entry): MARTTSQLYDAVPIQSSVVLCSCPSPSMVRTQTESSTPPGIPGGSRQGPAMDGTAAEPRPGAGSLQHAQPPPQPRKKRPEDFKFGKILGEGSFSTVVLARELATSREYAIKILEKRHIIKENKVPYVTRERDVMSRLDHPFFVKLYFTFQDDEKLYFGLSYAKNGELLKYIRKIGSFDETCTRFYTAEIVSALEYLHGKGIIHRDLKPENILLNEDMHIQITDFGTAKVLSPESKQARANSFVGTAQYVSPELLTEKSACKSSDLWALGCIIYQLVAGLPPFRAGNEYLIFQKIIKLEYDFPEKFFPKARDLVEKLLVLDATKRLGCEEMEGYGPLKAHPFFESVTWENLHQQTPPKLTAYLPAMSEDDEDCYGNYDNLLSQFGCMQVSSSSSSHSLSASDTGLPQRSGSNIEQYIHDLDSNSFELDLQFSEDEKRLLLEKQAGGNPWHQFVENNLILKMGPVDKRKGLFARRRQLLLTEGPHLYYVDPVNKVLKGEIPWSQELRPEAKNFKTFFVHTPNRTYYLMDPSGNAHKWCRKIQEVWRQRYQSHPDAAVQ
Arg(h), sequence (P42684 whole entry): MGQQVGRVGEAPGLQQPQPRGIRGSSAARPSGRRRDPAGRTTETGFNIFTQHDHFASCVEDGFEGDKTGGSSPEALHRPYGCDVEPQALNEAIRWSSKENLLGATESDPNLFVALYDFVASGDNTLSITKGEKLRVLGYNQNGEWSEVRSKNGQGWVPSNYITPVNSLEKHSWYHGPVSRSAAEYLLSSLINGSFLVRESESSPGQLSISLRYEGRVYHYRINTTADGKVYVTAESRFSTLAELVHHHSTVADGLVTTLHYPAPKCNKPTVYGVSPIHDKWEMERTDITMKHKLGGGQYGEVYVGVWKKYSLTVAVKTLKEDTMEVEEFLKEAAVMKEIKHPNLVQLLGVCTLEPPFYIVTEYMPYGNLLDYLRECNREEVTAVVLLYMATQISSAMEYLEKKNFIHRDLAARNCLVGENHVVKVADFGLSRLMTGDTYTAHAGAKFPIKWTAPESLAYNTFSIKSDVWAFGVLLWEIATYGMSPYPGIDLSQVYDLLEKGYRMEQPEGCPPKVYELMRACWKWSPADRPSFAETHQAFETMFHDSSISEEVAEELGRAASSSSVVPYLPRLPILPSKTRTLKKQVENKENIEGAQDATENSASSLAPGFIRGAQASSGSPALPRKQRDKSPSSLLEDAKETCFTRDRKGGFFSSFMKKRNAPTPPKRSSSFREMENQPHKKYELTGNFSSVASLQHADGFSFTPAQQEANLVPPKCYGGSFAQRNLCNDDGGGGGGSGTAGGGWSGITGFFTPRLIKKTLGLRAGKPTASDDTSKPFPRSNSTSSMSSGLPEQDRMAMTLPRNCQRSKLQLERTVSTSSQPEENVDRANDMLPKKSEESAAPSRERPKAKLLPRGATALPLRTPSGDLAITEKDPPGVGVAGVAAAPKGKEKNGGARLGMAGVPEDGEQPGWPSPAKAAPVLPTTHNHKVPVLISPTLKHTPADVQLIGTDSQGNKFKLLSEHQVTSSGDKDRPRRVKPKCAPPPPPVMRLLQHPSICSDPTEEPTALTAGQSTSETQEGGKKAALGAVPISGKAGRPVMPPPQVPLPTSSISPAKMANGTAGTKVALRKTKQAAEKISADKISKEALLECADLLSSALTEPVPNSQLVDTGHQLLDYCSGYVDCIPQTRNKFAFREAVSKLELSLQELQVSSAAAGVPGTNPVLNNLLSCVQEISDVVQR
p70S6K(h), sequence (P23443 whole entry): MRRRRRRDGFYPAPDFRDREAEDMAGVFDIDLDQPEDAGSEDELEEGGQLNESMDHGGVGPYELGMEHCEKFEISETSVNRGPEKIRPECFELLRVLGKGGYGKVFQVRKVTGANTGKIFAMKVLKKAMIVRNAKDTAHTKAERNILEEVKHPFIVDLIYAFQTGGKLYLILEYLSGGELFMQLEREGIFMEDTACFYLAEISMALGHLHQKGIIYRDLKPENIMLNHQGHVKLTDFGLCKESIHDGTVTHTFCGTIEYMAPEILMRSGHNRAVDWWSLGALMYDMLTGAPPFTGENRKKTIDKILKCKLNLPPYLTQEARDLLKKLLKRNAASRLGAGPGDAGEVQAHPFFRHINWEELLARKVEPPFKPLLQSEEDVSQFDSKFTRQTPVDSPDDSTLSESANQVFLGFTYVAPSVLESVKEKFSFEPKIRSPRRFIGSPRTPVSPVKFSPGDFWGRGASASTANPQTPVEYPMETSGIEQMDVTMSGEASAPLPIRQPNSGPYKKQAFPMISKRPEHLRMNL

NCCNc1cccc(-c2ccnc3[nH]c4ccccc4c23)c1 [AS283]
remaining activity at 1 µM (ROCK-II(h)): 77% | remaining activity at 1 µM (GSK3α(h)): 82% | remaining activity at 1 µM (PKG1β(h)): 38% | remaining activity at 1 µM (GSK3β(h)): 87% | effect on CaMKII binding to GluN2B in vitro ([1]; 10 μM AS283 in the presence of ADP): did not inhibit | Ca2+/CaM-induced CaMKII binding when ATP was substituted with AS283 ([1]; AS283 versus ATP): significantly enhanced | bound CaMKIIα (immunoblot, relative) ([1]; 10 μM AS283, no nucleotide, GST–GluN2B-c WT): 7.5135 and 8.574 and 8.878 and 7.419 | bound CaMKIIα (immunoblot, relative) ([1]; 1 mM ADP with 10 μM AS283): 1.196 and 1.2737 and 1.086 and 1.094 | remaining activity at 1 µM (CaMKI(h)): 107% | effect on CaMKII movement to excitatory synapses in response to cLTP ([2]; AS283): did not interfere | remaining activity at 1 µM (PDK1(h)): 78% | remaining activity at 1 µM (Arg(h)): 96% | remaining activity at 1 µM [3]: 100% | remaining activity at 1 µM (CaMKIIγ(h)): 2% | remaining activity at 1 µM (p70S6K(h)): 18% | remaining activity at 1 µM (AMPKα1(h)): 70% | remaining activity at 1 µM (PDGFRβ(h)): 111%

CC(C)(C)n1nc(Cc2cccc3ccccc23)c2c(N)ncnc21 [NM-PP1]
bound CaMKII-F89G (immunoblot, relative) ([4]; Ca2+/CaM, 10 μM NM-PP1): 3.501 and 3.151 and 3.552 and 3.537 | effect on binding of CaMKII F89G to GluN2B in vitro ([4]; NM-PP1): enabled binding | CaMKII synaptic enrichment ([2]; NMPP1, before cLTP): 1.457 and 1.288 and 1.299 and 1.252 and 1.168 and 1.649 | CaMKII synaptic enrichment ([2]; after cLTP in NMPP1): 2.238 and 1.828 and 2.413 and 1.827 and 1.651 and 2.282 | effect on binding of CaMKII F89G to GluN2B in HEK cells [5]: fully enabled binding
